This is an account of results in patent US20200163896A1, “FLOATABLE PHARMACEUTICAL MICROCAPSULE COMPOSITION” (Nanyang Technological University, priority 2017, published 2020).

The nature of series [1]: In vitro drug release in SGF for 48 h. The settings on record: 37° C., casein 0-5% (w/v). In kind it is physicochemical. The procedure:
In vitro release study was conducted in SGF for 48 h. In some experiments, the study was conducted in SGF, followed by SIF, where the total duration in SGF and SIF is 48 h. Each microcapsule sample (20 mg) was added to a bottle containing SGF or SIF medium (20 mL). Both SGF and SIF bottles were placed in a 37° C. rotating incubator. At different time points, half of the medium (10 mL) in each bottle was extracted and replaced with 10 mL new medium. The time points included intervals of hours within a 48-hour period. The drug content in the extracted medium was analyzed using RP-HPLC with the procedure mentioned in Example 1 for determining encapsulation efficiency.

The conditions of series [2]: cited from earlier work.
Series [3] in a line: Plasma pharmacokinetics after oral gavage in mice. The class given is in vivo. The settings on record: for MRT: mouse, plasma, oral, Table 3. The procedure:
The experimental mice were divided into two groups (control and F2) each comprising of five animals. Control formulation (as a solution) was prepared fresh each experimental day in 0.6% methyl cellulose diluted with saline solution. Mice were subsequently administered with 200 ul (control) or 300 μl (pellet) single dose of drug solution at LD:CD:ENT=10:2.5:20 mg·kg^−1 (Group 1, conventional formulation) and LD:CD:ENT=10:2.5:20 mg·kg^−1 (Group 2, F2 via oral gavage using a feeding syringe. At stipulated time points of 0.25, 0.5, 1, 2, 4, 8, 12, 24 hr, the mice were euthanized and blood was collected via cardiac puncture with ethylenediaminetetraacetic acid (EDTA) as the anticoagulant. The blood samples were then centrifuged (4,500 rpm) for 10 min at 25° C. to obtain the plasma. In addition, the brain was harvested and flash freeze in liquid nitrogen. Samples were stored in −80° C. before further analysis via LC/MS. Analysis of drugs in plasma and brain was conducted using LC/MS (Ribeiro et al., (2015). Bioanalysis, 7, 207-220). An Agilent 1290 HPLC system with an Agilent 6120 Quadrupole Mass Spectrometer was used to measure plasma and brain concentrations of drugs. The mobile phase consisted of a gradient of (A) 0.1% (v/v) formic acid (FA) and a mixture of ACN:MeOH (90:10, v/v) containing 0.1% (v/v) FA.
XBridge C8 column (150×4.6 mm; particle size 5 μm) was used at 30° C. The injection volume of samples was 20 μl. Plasma and brain extracted solution were mixed with internal standard and extracted by solid-phase extraction. The calibration curves were linear over the range of 2 to 2000 ng/mL for LD, 2 to 400 ng/mL for CD and 5 to 3000 ng/mL for ENT.

[4] abbreviates: casein-microcapsule versus control.

Where two headings read alike, the source gives them in different places.

In the case of `C[C@@](Cc1ccc(O)c(O)c1)(NN)C(=O)O` [CD, carbidopa], the “Release rate of drug from microcapsules versus casein concentration” value in series [1] is recorded as “independent of casein concentration”.

Usually Log P stands for the decadic logarithm of the partition coefficient of the neutral form, usually between octanol and water. Regarding `CC[C@@H](CO)NCCN[C@@H](CC)CO` [ETH, ethambutol], in series [2], the “Log P” value was −0.14. Besides, in series [1], the “Release rate of drug from microcapsules versus casein concentration” value was “independent of casein concentration”.

Regarding `CN(C)C(=N)N=C(N)N` [MET, metformin], the “Release rate of drug from microcapsules versus casein concentration” value in series [1] is “independent of casein concentration”.

As a reminder, the MRT is the average time that molecules of a dose stay in the body. `N[C@@H](Cc1ccc(O)c(O)c1)C(=O)O` [LD, levodopa]: the “Release rate of drug from microcapsules versus casein concentration” value in series [1] is “independent of casein concentration”. Also, in series [3] (setting [4]), the “increase of MRT of levodopa” value is on record as about 4 × and the “increase of bioavailability (AUC) of levodopa” value was found to be 2.8 ×. In series [3] (given as casein-microcapsule, read-out: mean residence time (MRT) of levodopa, casein-microcapsule), the MRT is 10.1 h. Further, the MRT in series [3] (given as control formulation, read-out: mean residence time (MRT) of levodopa, control) is 2.6 h.

Take `CO[C@H]1/C=C/O[C@@]2(C)Oc3c(C)c(O)c4c(O)c(c(/C=N/N5CCN(C)CC5)c(O)c4c3C2=O)NC(=O)/C(C)=C\C=C\[C@H](C)[C@H](O)[C@@H](C)[C@@H](O)[C@@H](C)[C@H](OC(C)=O)[C@@H]1C` [RIF, rifampicin]: the “Log P” value in series [2] is given as 4.24.

Consider `NNC(=O)c1ccncc1` [ISO, isoniazid], for which the “Log P” value in series [2] is on record as −0.7. For the same compound, the “Release rate of drug from microcapsules versus casein concentration” value in series [1] is listed as “independent of casein concentration”.
